Laboratory results reported in ChEMBL document CHEMBL1201862, “PubChem BioAssay data set” (2004).
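Dose response: 5 concentrations. Exposure: 48 h. Format: 96-well plates. Endpoint: linear interpolation; highest concentration if not reached. Abbreviation: GI50, concentration required for 50% inhibition of growth.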 Activity calls are given as the source filed them. Cut-off read from the data, not from the text of the source: active = GI50 up to about 1.1 µM and inactive = higher.

Experiments:
Assay in all cases: NCI anticancer screen, dose series, 48 h
SW-620 = test system: SW-620
HCT-116 = test system: HCT-116
COLO 205 = test system: COLO 205
K562 = test system: K562
ACHN = test system: ACHN
OVCAR-4 = test system: OVCAR-4
NCI-H522 = test system: NCI-H522
RPMI-8226 = test system: RPMI-8226
RXF 393 = test system: RXF 393
SN12C = test system: SN12C
CAKI-1 = test system: CAKI-1
UACC-257 = test system: UACC-257
TK-10 = test system: TK-10
NCI-H226 = test system: NCI-H226

| SMILES | GI50 (SW-620) | GI50 (HCT-116) | GI50 (COLO 205) | GI50 (K562) | GI50 (ACHN) | GI50 (OVCAR-4) | GI50 (NCI-H522) | GI50 (RPMI-8226) | GI50 (RXF 393) | GI50 (SN12C) | GI50 (CAKI-1) | GI50 (UACC-257) | GI50 (TK-10) | GI50 (NCI-H226) |
| --- | --- | --- | --- | --- | --- | --- | --- | --- | --- | --- | --- | --- | --- | --- |
| CC(=O)OCC1OC(OC2CC3C(C)(C)C(OC(C)=O)CC[C@]3(C)C3CCC45CC4(CC[C@H]5C(C)CC(O)[C@@H](O)C(C)(C)O)[C@]23C)C(O)C(O)C1O (some centres undefined) | 7.69 µM (inactive) | 7.64 µM (inactive) | 7.8 µM (inactive) | 5.55 µM (inactive) | 7.98 µM (inactive) | 6.67 µM (inactive) | 1.82 µM (inactive) | 0.173 µM (active) | 7.57 µM (inactive) | 7.05 µM (inactive) | 7.21 µM (inactive) | 7.53 µM (inactive) | 7.76 µM (inactive) | 7.18 µM (inactive) |
| NC(=O)N/N=C(\CCC(=O)N(Cc1ccccc1)Cc1ccccc1)CC(=O)c1ccc(F)cc1 | > 100 µM (inactive) | > 100 µM (inactive) | > 100 µM (inactive) | > 100 µM (inactive) | > 100 µM (inactive) | > 100 µM (inactive) |  |  | 31.6 µM (inactive) | > 100 µM (inactive) | > 100 µM (inactive) | > 100 µM (inactive) | > 100 µM (inactive) | > 100 µM (inactive) |
| O=C(CSc1nnc(-c2ccc(/N=C\c3ccc(Cl)cc3)cc2)o1)Nc1ccccc1[N+](=O)[O-] | > 100 µM (inactive) | > 100 µM (inactive) | > 100 µM (inactive) | > 100 µM (inactive) | > 100 µM (inactive) | > 100 µM (inactive) | > 100 µM (inactive) | > 100 µM (inactive) | 94.6 µM (inactive) | > 100 µM (inactive) |  | > 100 µM (inactive) | > 100 µM (inactive) | > 100 µM (inactive) |
| CCCCCCCCCCCC(=O)OCC1OC(n2cc(F)c(=O)[nH]c2=O)C(N)C(OC(=O)CCCCCCCCCCC)C1O (centres undefined) | 68.4 µM (inactive) | 88.1 µM (inactive) | 68.4 µM (inactive) | 30.2 µM (inactive) | > 100 µM (inactive) | 37.3 µM (inactive) | 31.6 µM (inactive) | 54.5 µM (inactive) | > 100 µM (inactive) | 60.7 µM (inactive) | > 100 µM (inactive) | > 100 µM (inactive) | > 100 µM (inactive) |  |
| CCOC(=O)N1CCC(=O)C(CNC23CC4CC(CC(C4)C2)C3)C1 (centres undefined) | 19.8 µM (inactive) |  | 37.4 µM (inactive) | 13.1 µM (inactive) | 17.5 µM (inactive) | 15.1 µM (inactive) | 16.7 µM (inactive) |  | 17.2 µM (inactive) | > 100 µM (inactive) | > 10 µM (inactive) | 23.9 µM (inactive) | > 100 µM (inactive) | > 100 µM (inactive) |
| N#C/C(c1nc2ccccc2[nH]1)=c1\s/c(=C/c2ccc(Cl)cc2)c(=O)n1-c1ccccc1 | > 100 µM (inactive) | > 100 µM (inactive) | > 100 µM (inactive) | > 100 µM (inactive) | > 100 µM (inactive) | > 100 µM (inactive) | > 100 µM (inactive) | > 100 µM (inactive) |  | > 100 µM (inactive) | > 100 µM (inactive) | > 100 µM (inactive) | > 100 µM (inactive) | > 100 µM (inactive) |
| COc1ccc(OCC(=O)O)c2c1CCC(C(C)C)C2=O (centres undefined) | > 100 µM (inactive) | > 100 µM (inactive) | > 100 µM (inactive) | > 100 µM (inactive) | > 100 µM (inactive) | > 100 µM (inactive) | > 100 µM (inactive) | > 100 µM (inactive) |  |  | > 100 µM (inactive) | > 100 µM (inactive) | > 100 µM (inactive) |  |
| Cc1nn2c3c(nnc2c1C#N)C(=O)NN=C(N)S3 | > 100 µM (inactive) | > 100 µM (inactive) | > 100 µM (inactive) | > 100 µM (inactive) |  | > 100 µM (inactive) | > 100 µM (inactive) | > 100 µM (inactive) | > 100 µM (inactive) | > 100 µM (inactive) | > 100 µM (inactive) |  | > 100 µM (inactive) |  |
| C1=C(c2ccccc2)CN(c2ccccc2)OC1 | > 100 µM (inactive) |  | > 100 µM (inactive) | 77.4 µM (inactive) | 63.2 µM (inactive) | > 10 µM (inactive) | 18.6 µM (inactive) | 44.8 µM (inactive) | 33.5 µM (inactive) | > 100 µM (inactive) | 56.5 µM (inactive) |  | > 100 µM (inactive) | > 100 µM (inactive) |
| CC1CC2C(=O)N(c3ccccc3)C(=O)C2c2c1c1ccccc1n2Cc1ccccc1 (centres undefined) | > 100 µM (inactive) | 29.3 µM (inactive) | 49.8 µM (inactive) | 14.5 µM (inactive) | 39.1 µM (inactive) | > 100 µM (inactive) | 17.7 µM (inactive) | > 100 µM (inactive) |  | > 100 µM (inactive) | > 100 µM (inactive) |  |  | 33.3 µM (inactive) |
| CN(C)C(=S)/N=c1\ss/c(=N\c2ccccc2)n1-c1ccccc1 | 25 µM (inactive) |  |  | 11.2 µM (inactive) | 25.2 µM (inactive) | 0.275 µM (active) | 1.21 µM (inactive) |  | 16.3 µM (inactive) | 49.5 µM (inactive) | 34.3 µM (inactive) | 24.2 µM (inactive) | 25.8 µM (inactive) | 10.7 µM (inactive) |
| FC(F)(F)c1nc(-c2ccccc2Cl)[nH]c1C(F)(F)F | 1.15 µM (inactive) | 0.729 µM (active) | 0.542 µM (active) | 1.03 µM (active) | 0.841 µM (active) | 0.664 µM (active) |  | 2.66 µM (inactive) | 0.798 µM (active) | 0.705 µM (active) | 0.679 µM (active) | 0.646 µM (active) | 1.13 µM (inactive) | 0.61 µM (active) |
| O=C(O)CSc1nnc(-c2ccc(O)cc2)[nH]1 | > 100 µM (inactive) | > 100 µM (inactive) | > 100 µM (inactive) | > 100 µM (inactive) | > 100 µM (inactive) | > 100 µM (inactive) | > 100 µM (inactive) | > 100 µM (inactive) |  | > 10 µM (inactive) | > 100 µM (inactive) | > 100 µM (inactive) | > 100 µM (inactive) | > 100 µM (inactive) |
| CCOC(=O)/C(Br)=C1\OC(=O)c2ccccc2-c2ccccc21 | 42.5 µM (inactive) | 43.3 µM (inactive) | 20.8 µM (inactive) | 21.1 µM (inactive) | 52.6 µM (inactive) |  | 23 µM (inactive) | 27.9 µM (inactive) |  | 37.4 µM (inactive) | 54.3 µM (inactive) | 58.5 µM (inactive) | 60.7 µM (inactive) | 23.4 µM (inactive) |
| Cc1nc2ccccc2c(=O)[nH]1 | > 100 µM (inactive) | > 100 µM (inactive) | > 100 µM (inactive) | > 100 µM (inactive) | > 100 µM (inactive) | > 100 µM (inactive) | > 100 µM (inactive) | > 100 µM (inactive) | > 100 µM (inactive) | > 100 µM (inactive) |  | > 100 µM (inactive) | > 100 µM (inactive) | > 100 µM (inactive) |
